Results taken from patent publication US8889902B2, “Acetylsalicylic acid salts” (priority 2009, dated 2014).
Where “and” joins values, the source holds several entries; their conditions need not be identical. Identical values can stand only once. Marks after values point to notes of the source that are not given here.

Experiments:
[1] = tested on: carrageneen paw oedema; test: Acute inflammatory oedema model (carrageneen test); assay type: in vivo, rats; details: 4 h
Method: Experiments were conducted using carrageneen test (Winter C et al, Proc Soc Exptl Biol and Med 1962; III(3):544-547. Wei Jia et al, Journal of Ethnopharmacology 2003(89):139-141; Sutharson Lingadurai et al, African Journal of traditional, complementary and alternative medicines, 2007, 4(4):411-416) on 42 rats with body mass of 226-274 g. Single injection of carrageneen (Sigma) solution (1%) in saline (0.1 ml) was introduced in rat hind leg paw. Test substances were introduced p.o. (through catheter into rat stomach) 30 min. after the injection of carrageneen. The volume of paw was measured by oncometer at baseline and 4 hours after the injection of carrageneen.
The percentage of prevention (inhibition of oedema) was calculated according to formula: P(%)=(1−Vo/Vc)×100, where P—Prevention in % (inhibition of oedema) Vo—difference between the paw volume at baseline and at experimental conditions; Vc—analogical difference in control group.

[2] = tested on: platelet aggregation; test: Platelet aggregation in vitro, whole blood impedance aggregometry (Multiplate); assay type: cell-based, healthy donor
Method: Platelet aggregation was studied using whole blood impedance aggregometry on Multiplate (Multiple Platelet Function Analyzer, Dynabyte Medical, Germany) (Toth O et al, Thromb Haemost 2006; 96:781-788. […] Blood samples for in vitro experiment were collected from healthy donor B. […] In the ex vivo experiment blood was collected into plastic tubes covered with hirudin (Dynabyte Medical, Germany) from narcotized rats that were treated for 3 previous days with test substances p.o. The measurements were performed according to modified Dynabyte Medical protocol. […] After 5 min incubation and stirring at 37° C., measurements were initiated by adding of the appropriate agonist solution (sourced from Dynabyte Medical, Germany): 1) adenosine diphosphate (ADP)-ADP-Test. ADP stimulates platelet activation by the ADP receptors (P2Y 12 and other). […] 3) ADP HS test (prostaglandin E1 in combination with ADP). […] Aggregation curves were recorded for 6 min. and analyzed using Dynabyte Medical software. We calculated the following parameters of platelet aggregation: […] It is affected by the total height of the aggregation curve as well as by its slope and is best suited to express the overall platelet activity.

[3] = tested on: serum lipid levels (C, HDL, LDL, TG); test: Chronic hyperlipidemia model (Triton WR1339, 3 weeks); assay type: in vivo, Wistar rats; details: TR 250 mg/kg 3x/week
Method: Male Wistar rats were used. Animals were held in climatized rooms 22±1° C. with relative humidity 60±5%, and 12/12-hour light/dark cycle with free access to water and feed. Initial weight of animals was 220-240 g. Experimental chronical (subchronical) hyperlipidemia/hypercholesterolemia was induced by TR using the method described by Levine and Saltzman (Levine S, Saltzman A, J Pharmacol Toxicol Meth 2007; 55:224-226). Animals received 250 mg/kg of TR solution via tail vein three times a week for 3 weeks. Solutions of test substances or water for Control and TR group was introduced p.o. once a day one hour before injection of TR solution or taking a blood sample according to the following scheme:
Blood for biochemical analyses was obtained after 1, 2 and 3 weeks (on the next day after the TR injection) by cardiac punction under ether narcosis. Serum was separated by centrifugation and analyzed for total C, HDL, LDL and TG levels by commercial kits. Statistics.

[4] = tested on: blood flow in the right ear artery; test: Cutaneous vasodilatation caused by nicotinic acid, ear artery blood flow; assay type: in vivo, Wistar rats; details: maximal change to baseline
Method: Model. […] Blood pressure was measured in left carotid artery, ECG recorded by standard II lead. […] Blood flow, ECG and arterial pressure were registered by AD Instruments PowerLab systems and stored in computer for further processing. […] The average blood flow data for each animal were calculated taking into account the average blood pressure and compared with initial and control. […] Statistics.

[5] = tested on: rat ear skin temperature; test: Ear skin temperature rise caused by NA, s.c. administration; assay type: in vivo, Wistar rats
Method: Male Wistar rats (280-330 g) were used. Animals were held in groups of 6 in climatized rooms at 22±1° C., relative humidity 60±5%, and 12/12-hour light/dark cycle with free access to drinking water and feed (R3—Lactamin AB, Sweden). For registration of changes in skin temperature of intact rats contactless temperature recording method was used (Papaliodis D et al, Br J Pharmacol 2008; 153:1382-1387). Temperature measurements were performed with a hand-held infrared thermometer (Model Proscan 510, TFA-Dostman). Animals were habituated to handling and to the infrared probe for 3 days before use. Temperature readings from the dorsal side of each ear were recorded without anaesthesia at beginning and during experiment. The ear temperature was measured every 5 min. for a period of up to 60 min. The animals were returned to their cages between measurements. NA, MD and MASA were dissolved in saline and pH was corrected immediately before usage. LA (MK 0524, Cayman Chemicals) was first dissolved in DMSO and then freshly diluted with 0.9% NaCl, on each day of the experiment. The rate of NA and LA combination was based on Summary of Product Characteristics for Tredaptive™ (nicotinic acid/laropiprant) 1000 mg/20 mg modified-release tablets.
The influence of LA, MD or MASA alone on skin temperature was checked. Each investigated compound was introduced s.c. simultaneously with NA as LA+NA [0] or 30 min in advance to NA as LA+NA [30].

[6] = 100 mg/kg p.o. 30 min after carrageneen
[7] = 75 mg/kg p.o. 30 min after carrageneen
[8] = 150 mg/kg p.o. 30 min after carrageneen
[9] = 300 mg/kg p.o. 30 min after carrageneen

SMILES: CC(=O)Oc1ccccc1C(=O)O [ASA, acetylsalicylic acid]
- Index, % (inhibition of oedema) [1, 6]: 66%
- Volume of paw after injection of carrageneen [1, 6]: 1.97 ± 0.10 mL
- AUC ([2]; AA induced, 10^−4): 450 ± 24.8^2#@ AU*min and 450 ± 24.8^3a@ AU*min
- Amax ([2]; AA induced, 10^−4): 103.1 ± 5.9^2#@ AU and 103.1 ± 5.9^2a@ AU
- AUC ([2]; ADP induced, 10^−4): 883 ± 50.3 AU*min
- Amax ([2]; ADP induced, 10^−4): 151.7 ± 9.3 AU
- AUC ([2]; PGE1 + ADP induced, 10^−4): 961 ± 35.0 AU*min
- Amax ([2]; PGE1 + ADP induced, 10^−4): 162.5 ± 8.7 AU

SMILES: CC(=O)Oc1ccccc1C(=O)[O-].C[N+](C)(C)NCCC(=O)O [MASA, 3-(trimethylammonioamino)propanoate Acetylsalicylic Acid Addition Salt]
- Index, % (inhibition of oedema) [1, 7]: 18%
- Volume of paw after injection of carrageneen [1, 7]: 2.51 ± 0.11 mL
- Index, % (inhibition of oedema) [1, 8]: 93%
- Volume of paw after injection of carrageneen [1, 8]: 1.54 ± 0.15***^$& ml
- Index, % (inhibition of oedema) [1, 9]: 91%
- Volume of paw after injection of carrageneen [1, 9]: 1.79 ± 0.15 mL
- HDL after 1 week (HDL1) ([3]; MASA 150 mg/kg/d p.o.): 100.1 ± 9.4 mg/dL
- HDL after 2 weeks (HDL2) ([3]; MASA 150 mg/kg/d p.o.): 113.8 ± 13.1 mg/dL
- HDL after 3 weeks (HDL3) ([3]; MASA 150 mg/kg/d p.o.): 128.3 ± 18.5 mg/dL
- LDL after 1 week (LDL1) ([3]; MASA 150 mg/kg/d p.o.): 263.3 ± 19.4 mg/dL
- LDL after 2 weeks (LDL2) ([3]; MASA 150 mg/kg/d p.o.): 287.6 ± 18.5 mg/dL
- LDL after 3 weeks (LDL3) ([3]; MASA 150 mg/kg/d p.o.): 261.9 ± 12.6 mg/dL
- TG after 1 week (TG1) ([3]; MASA 150 mg/kg/d p.o.): 964 ± 94.9 mg/dL
- TG after 2 weeks (TG2) ([3]; MASA 150 mg/kg/d p.o.): 1079 ± 84 mg/dL
- TG after 3 weeks (TG3) ([3]; MASA 150 mg/kg/d p.o.): 982 ± 72.7 mg/dL
- Total C after 1 week (C1) ([3]; MASA 150 mg/kg/d p.o.): 375.9 ± 25.8 mg/dL
- Total C after 2 weeks (C2) ([3]; MASA 150 mg/kg/d p.o.): 406.7 ± 19.8 mg/dL
- Total C after 3 weeks (C3) ([3]; MASA 150 mg/kg/d p.o.): 409 ± 39.4 mg/dL
- AUC ([2]; AA induced, 10^−4): 298 ± 25.3^3#&&$ AU*min and 298 ± 25.3^3aa& AU*min
- Amax ([2]; AA induced, 10^−4): 66.1 ± 6.8^3#&&$ AU and 66.1 ± 6.8^3aa& AU
- AUC ([2]; AA induced, 10^−5): 832 ± 54.1^1 AU*min
- Amax ([2]; AA induced, 10^−5): 148.4 ± 5.7^1 AU
- AUC ([2]; ADP induced, 10^−4): 798 ± 38.9^1 AU*min
- Amax ([2]; ADP induced, 10^−4): 140.5 ± 7.2^1 AU
- AUC ([2]; ADP induced, 10^−5): 828 ± 63.5 AU*min
- Amax ([2]; ADP induced, 10^−5): 153.5 ± 8.8 AU
- AUC ([2]; PGE1 + ADP induced, 10^−4): 533 ± 20.3^3$&&& AU*min
- Amax ([2]; PGE1 + ADP induced, 10^−4): 87.7 ± 4.6^3$&&& AU
- AUC ([2]; PGE1 + ADP induced, 10^−5): 595 ± 45.3^1 AU*min
- Amax ([2]; PGE1 + ADP induced, 10^−5): 99.3 ± 4.8^2 AU
- Changes in blood flow, % ([4]; 45 mg/kg s.c.): 8.04 ± 2.02^$ %
- Maximum temperature ([5]; 45 mg/kg s.c. alone): 29.2 ± 0.38^$$$ ° C.

SMILES: C[N+](C)(C)NCCC(=O)[O-].O.O [MD, 3-(Trimethylammonioamino)propanoate dihydrate]
- Index, % (inhibition of oedema) [1, 6]: 43%
- Volume of paw after injection of carrageneen [1, 6]: 2.13 ± 0.12 mL
- AUC ([2]; AA induced, 10^−4): 1050 ± 37.6^& AU*min
- Amax ([2]; AA induced, 10^−4): 179.5 ± 7.3^& AU
- AUC ([2]; ADP induced, 10^−4): 869 ± 36.3 AU*min
- Amax ([2]; ADP induced, 10^−4): 153.2 ± 6.1 AU
- AUC ([2]; PGE1 + ADP induced, 10^−4): 587 ± 37.4^2&& AU*min
- Amax ([2]; PGE1 + ADP induced, 10^−4): 101.4 ± 2.2^2&& AU
- Maximum temperature ([5]; 45 mg/kg s.c. alone): 29.6 ± 0.31^$$$ ° C.

SMILES: O=C(O)c1cccnc1 [NA, nicotinic acid]
- HDL after 1 week (HDL1) ([3]; NA 50 mg/kg/d p.o.): 111.3 ± 9.1 mg/dL
- HDL after 2 weeks (HDL2) ([3]; NA 50 mg/kg/d p.o.): 144.7 ± 13.5 mg/dL
- HDL after 3 weeks (HDL3) ([3]; NA 50 mg/kg/d p.o.): 127.3 ± 10.9 mg/dL
- LDL after 1 week (LDL1) ([3]; NA 50 mg/kg/d p.o.): 216.3 ± 14.0 mg/dL
- LDL after 2 weeks (LDL2) ([3]; NA 50 mg/kg/d p.o.): 250.3 ± 20.6 mg/dL
- LDL after 3 weeks (LDL3) ([3]; NA 50 mg/kg/d p.o.): 265.1 ± 18.4 mg/dL
- TG after 1 week (TG1) ([3]; NA 50 mg/kg/d p.o.): 734 ± 81.6 mg/dL
- TG after 2 weeks (TG2) ([3]; NA 50 mg/kg/d p.o.): 860 ± 73.8 mg/dL
- TG after 3 weeks (TG3) ([3]; NA 50 mg/kg/d p.o.): 828 ± 44.7 mg/dL
- Total C after 1 week (C1) ([3]; NA 50 mg/kg/d p.o.): 345 ± 15.7 mg/dL
- Total C after 2 weeks (C2) ([3]; NA 50 mg/kg/d p.o.): 401.1 ± 25.1 mg/dL
- Total C after 3 weeks (C3) ([3]; NA 50 mg/kg/d p.o.): 405.5 ± 25.9 mg/dL
- AUC ([2]; AA induced, 10^−4): 1010 ± 41.7 AU*min
- Amax ([2]; AA induced, 10^−4): 161.1 ± 9.4 AU
- AUC ([2]; ADP induced, 10^−4): 859 ± 62.5 AU*min
- Amax ([2]; ADP induced, 10^−4): 148.0 ± 5.2^1 AU
- AUC ([2]; PGE1 + ADP induced, 10^−4): 862 ± 51.9 AU*min
- Amax ([2]; PGE1 + ADP induced, 10^−4): 146.7 ± 8.6 AU
- Changes in blood flow, % ([4]; 15 mg/kg s.c.): 55.75 ± 11.5 %
- Maximum temperature ([5]; NA 15 mg/kg s.c.): 32.2 ± 0.42 °C
- maximal temperature increase from baseline ([5]; NA 15 mg/kg s.c., at 10 min): 2.32±0.37 °C
- maximal temperature increase in comparison with Solvent group ([5]; NA 15 mg/kg s.c., at 10 min): 2.57±0.43
- Increase, % ([5]; NA 15 mg/kg s.c., effect of NA = 100): 100%
